# According to US8754115B2, “Fungicidal pyrazoles” (E I du Pont de Nemours and Company, priority 2010, dated 2014):
# Marks after values point to notes of the source that are not given here.
# Columns and labels:
# Assay type in all cases: in vivo
# [1] = tested on: Botrytis cinerea; experiment: Test A: preventive spray on tomato seedlings, visual disease rating (tomato Botrytis)
# Source text: (§1) General protocol for preparing test suspensions for Tests A-F: the test compounds were first dissolved in acetone in an amount equal to 3% of the final volume and then suspended at the desired concentration (in ppm) in acetone and purified water (50/50 mix by volume) containing 250 ppm of the surfactant Trem® 014 (polyhydric alcohol esters). The resulting test suspensions were then used in Tests A-F. Spraying a 200 ppm test suspension to the point of run-off on the test plants was the equivalent of a rate of 800 g/ha. Unless otherwise indicated, the rating values indicate a 200 ppm test suspension was used. (An asterisk “*” next to the rating value indicates a 40 ppm test suspension was used.)
# (§2) The test suspension was sprayed to the point of run-off on tomato seedlings. The following day the seedlings were inoculated with a spore suspension of Botrytis cinerea (the causal agent of tomato Botrytis) and incubated in saturated atmosphere at 20° C. for 48 h, and then moved to a growth chamber at 24° C. for 3 days, after which time visual disease ratings were made.
# (§3) Results for Tests A-F are given in Table A. In the Table, a rating of 100 indicates 100% disease control and a rating of 0 indicates no disease control (relative to the controls). A dash (-) indicates no test results. An asterisk “*” next to the rating value indicates a 40 ppm test suspension was used.
# [2] = tested on: Septoria tritici; experiment: Test D: preventive spray on wheat seedlings, visual disease rating (wheat leaf blotch)
# Source text: as §1
# as §2, with “wheat” for “tomato”, “Septoria tritici” for “Botrytis cinerea”, “wheat leaf blotch)” for “tomato Botrytis)”, “24°” for “20°”, “20°” for “24°”, “19” for “3”
# as §3
# [3] = tested on: Puccinia recondite f. sp. tritici; experiment: Test E2: preventive spray on wheat seedlings, visual disease rating (wheat leaf rust)
# Source text: as §1
# The test suspension was sprayed to the point of run-off on wheat seedlings. The following day the seedlings were inoculated with a spore suspension of Puccinia recondite f. sp. tritici (the causal agent of wheat leaf rust) and incubated in a saturated atmosphere at 20° C. for 24 h, and then moved to a growth chamber at 20° C. for 7 days, after which time visual disease ratings were made.
# as §3
# [4] = tested on: Blumeria graminis f. sp. tritici; experiment: Test F: preventive spray on wheat seedlings, visual disease rating (wheat powdery mildew)
# Source text: as §1
# The test suspension was sprayed to the point of run-off on wheat seedlings. The following day the seedlings were inoculated with a spore dust of Blumeria graminis f. sp. tritici, (also known as Erysiphe graminis f. sp. tritici, the causal agent of wheat powdery mildew) and incubated in a growth chamber at 20° C. for 8 days, after which time visual disease ratings were made.
# as §3
# [5] = no asterisk: standard test suspension, not 40 ppm, 100 = 100% disease control, 0 = none
# [6] = no asterisk: standard test suspension, not 40 ppm
# [7] = asterisk: 40 ppm test suspension
SMILES,"Test A rating (% disease control) [1, 5]","Test D rating (% disease control) [2, 6]","Test E2 rating (% disease control) [3, 6]","Test F rating (% disease control) [4, 6]","Test A rating (% disease control) [1, 7]","Test D rating (% disease control) [2, 7]","Test E2 rating (% disease control) [3, 7]","Test F rating (% disease control) [4, 7]",also measured
"Cc1nn(C)c(-c2ccc(F)cc2I)c1C(O)c1ccc(F)cc1Cl (single isomer, unassigned) [compound 103]",99%,98%,96%,95%,–,–,–,–,–
"Cc1nn(C)c(-c2ccc(F)cc2I)c1C(O)c1ccc(F)cc1Cl (single isomer, unassigned) [compound 104]",–,–,–,–,0* %,98* %,97* %,72* %,–
Cc1nn(C)c(-c2c(F)cccc2F)c1C(OCC#N)c1ccc(F)cc1Cl (stereo not drawn) [Compound 107],–,–,–,–,9* %,99* %,99* %,99* %,–
CC(=O)OC(c1ccc(F)cc1Cl)c1c(C)nn(C)c1-c1c(F)cccc1F (stereo not drawn) [Compound 108],–,–,–,–,99* %,100* %,100* %,100* %,–
C=CCOC(c1ccc(F)cc1Cl)c1c(C)nn(C)c1-c1c(F)cccc1F (stereo not drawn) [Compound 109],–,–,–,–,0* %,100* %,98* %,97* %,–
COCOC(c1ccc(F)cc1Cl)c1c(C)nn(C)c1-c1c(F)cccc1F (stereo not drawn) [Compound 110],–,–,–,–,0* %,100* %,98* %,99* %,–
Cc1nn(C)c(-c2c(F)cccc2F)c1C(SC#N)c1ccc(F)cc1Cl (stereo not drawn) [Compound 111],100%,100%,100%,100%,–,–,–,–,–
Cc1nn(C)c(-c2c(F)cccc2F)c1C(SC#N)c1ccc(F)cc1F (stereo not drawn) [Compound 115],–,–,–,–,88* %,100* %,94* %,99* %,–
Cc1nn(C)c(-c2c(F)cccc2F)c1C(SC#N)c1c(F)cc(F)cc1F (stereo not drawn) [Compound 116],–,–,–,–,0* %,78* %,9* %,0* %,–
Cc1nn(C)c(-c2c(F)cccc2Cl)c1C(SC#N)c1ccc(F)cc1Cl (stereo not drawn) [Compound 121],–,–,–,–,97* %,100* %,100* %,100* %,–
Cc1nn(C)c(-c2c(F)cccc2Cl)c1C(SC#N)c1ccc(F)cc1F (stereo not drawn) [Compound 122],–,–,–,–,98* %,100* %,100* %,99* %,–
Cc1nn(C)c(-c2c(F)cccc2Cl)c1C(SC#N)c1c(F)cc(F)cc1F (stereo not drawn) [Compound 123],–,–,–,–,87* %,100* %,99* %,90* %,–
"COc1nn(C)c(-c2c(F)cccc2F)c1C(O)c1ccc(F)cc1C (stereo not drawn) [Compound 157, 5-(2,6-difluorophenyl)-α-(4-fluoro-2-methylphenyl)-3-methoxy-1-methyl-1H-pyrazole-4-methanol]",–,–,–,–,–,–,–,–,"pest or weed control at 40 ppm ([1]; Botrytis cinerea, 120 h, asterisk: 40 ppm test suspension): 100%; pest or weed control at 40 ppm ([2]; Zymoseptoria tritici, 504 h, asterisk: 40 ppm test suspension): 100%; pest or weed control at 40 ppm ([3]; 192 h, asterisk: 40 ppm test suspension): 100%; pest or weed control at 40 ppm ([4]; Blumeria graminis, 192 h, asterisk: 40 ppm test suspension): 100%"
Cc1nn(C)c(-c2c(F)cccc2Br)c1C(=O)c1ccc(F)cc1Cl [compound 93],90%,7%,91%,100%,–,–,–,–,–
Cc1nn(C)c(-c2c(F)cccc2Br)c1C(O)c1ccc(F)cc1Cl (stereo not drawn) [compound 94],99%,100%,100%,100%,–,–,–,–,–
Cc1nn(C)c(-c2ccc(F)cc2Br)c1C(O)c1ccc(F)cc1Cl (stereo not drawn) [compound 95],–,–,–,–,94* %,99* %,98* %,95* %,–
Cc1nn(C)c(-c2ccc(Cl)cc2Cl)c1C(O)c1ccc(F)cc1F (stereo not drawn) [compound 97],99%,100%,100%,99%,–,–,–,–,–
Cc1nn(C)c(-c2c(Cl)cncc2Cl)c1C(O)c1ccc(F)cc1Cl (stereo not drawn) [compound 98],–,–,–,–,94* %,100* %,100* %,100* %,–
Cc1nn(C)c(-c2ccc(F)cc2Cl)c1C(O)c1ccc(F)cc1I (stereo not drawn) [compound 99],97%,100%,100%,99%,–,–,–,–,–
Cc1nn(C)c(-c2ccc(Cl)cc2Cl)c1C(O)c1ccc(F)cc1Cl (stereo not drawn) [compound 100],–,100%,100%,99%,–,–,–,–,–
Cc1nn(C)c(-c2ccc(Cl)cc2Cl)c1C(O)c1ccc(Cl)cc1F (stereo not drawn) [compound 101],–,100%,99%,72%,–,–,–,–,–
Cc1nn(C)c(-c2c(F)cc(Br)cc2F)c1C(=O)c1ccc(F)cc1F [compound 102],0%,0%,55%,97%,–,–,–,–,–
Cc1nn(C)c(-c2ccc(F)cc2)c1C(O)c1ccc(F)cc1Cl (stereo not drawn) [compound 105],–,–,–,–,0* %,100* %,98* %,81* %,–
Cc1nn(C)c(-c2c(F)cc(Br)cc2F)c1C(O)c1ccc(F)cc1F (stereo not drawn) [compound 106],98%,100%,97%,0%,–,–,–,–,–
Cc1nn(C)c(-c2c(F)cc(C#N)cc2F)c1C(O)c1ccc(F)cc1F (stereo not drawn) [compound 112],80%,100%,100%,97%,–,–,–,–,–
COc1nn(C)c(-c2ccc(F)cc2Cl)c1C(O)c1ccc(F)cc1Cl (stereo not drawn) [compound 118],100%,100%,99%,100%,–,–,–,–,–
COc1nn(C)c(-c2c(F)cccc2Cl)c1C(O)c1ccc(F)cc1Cl (stereo not drawn) [compound 120],100%,100%,100%,100%,–,–,–,–,–
Cn1nc(Br)c(C(O)c2ccc(F)cc2F)c1-c1c(F)cccc1F (stereo not drawn) [compound 124],99%,100%,100%,100%,–,–,–,–,–
Cn1nc(Br)c(C(O)c2ccc(F)cc2Cl)c1-c1ccc(F)cc1Cl (stereo not drawn) [compound 125],82%,100%,100%,87%,–,–,–,–,–
